Source: PubChem BioAssay AID2610 (Broad Institute, 2010)
Results filed as inconclusive are left out. Activity calls are given as the source filed them.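 How the source made its calls: active means EC50 no more than tenfold above the top concentration tested, with valid fit and all samples agreeing; inconclusive means flat fit at 30 to 70% inhibition, poor fit, or split samples; inactive means EC50 beyond tenfold the top concentration tested.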

system: BJeLR fibroblast viability, Alamar Blue fluorescence, 48 h; assay: cytotoxicity toward RAS-transformed BJeLR fibroblasts, dose response, cell-based, alamar blue fluorescence, 48 h, cherrypicked samples (AID 2610);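 further: BJ fibroblasts with hTERT plus SV40 large and small T and HRAS V12; EC50 for loss of viable cells so potency reflects cytotoxic compounds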

Structure (SMILES) | EC50
CC(=O)Nc1ccc(/C=N/Nc2nc3ccccc3[nH]2)cc1 | > 13300 nM (inactive)
CCN(CC)Cc1c(O)ccc2c1O/C(=C\C=C\c1ccccc1)C2=O | > 13300 nM (inactive)
Clc1ccccc1Nc1nnc(-c2ccncc2)s1 | > 13300 nM (inactive)
CCC(C)C(=O)OCC1(c2ccc(C)cc2OC(=O)C(C)C)CO1 (stereo unspecified) | > 13300 nM (inactive)
O=C(Nc1ccc([N+](=O)[O-])cc1)Nc1ccon1 | 380 nM
COc1ccc(C(=O)N/N=C(\C)c2ccccn2)cc1OC | 795 nM
CC(C)c1onc(C(=O)N2CCN(C(c3ccccc3)c3ccccc3)CC2)c1[N+](=O)[O-] | 522 nM
CCOC(=O)c1c(C)[nH]c2c1-c1ccccc1C(=O)C2=O | 492 nM
Cc1cccc(N(C)S(=O)(=O)c2ccc(-c3cnc(C4CC4)o3)cc2)c1 | < 104 nM
COc1ccc(OC)c2sc(N(CCCN(C)C)C(=O)c3ccc(S(=O)(=O)N4CCc5ccccc5C4)cc3)nc12 | 108 nM
COC(=O)c1[nH]c2c(c1C)C(=O)CC(c1cccs1)C2 (stereo unspecified) | 152 nM
CCN1C(=O)C(=Cc2cccc(OC)c2Oc2ccc([N+](=O)[O-])cc2[N+](=O)[O-])SC1=S | 1050 nM
Cn1cnc(Sc2ncnc3nc[nH]c23)c1[N+](=O)[O-] | > 13300 nM (inactive)
COc1ccc(COC(=O)c2cc([N+](=O)[O-])ccc2N2CCOCC2)cc1F | < 104 nM
CC1CCCN(c2ccc([N+](=O)[O-])cc2C(=O)c2ccccc2)C1 (stereo unspecified) | < 104 nM
Cc1cccc2cc(C#N)c(SCC(=O)N3CC(=O)Nc4ccccc43)nc12 | < 104 nM
N#Cc1c(NC(=O)/C=C/c2ccco2)sc2c1CCCC2 | < 104 nM
S=C(N/N=C/c1ccc2ncccc2c1)Nc1ccccc1 | > 13300 nM (inactive)
Nc1nc(F)nc2c1ncn2[C@@H]1O[C@H](CO)[C@@H](O)[C@H]1O | 151 nM
Cc1ccc(N=Cc2c(C)[nH]n(-c3nc4ccccc4[nH]3)c2=O)cc1 | > 13300 nM (inactive)
O=C(/C=C/c1ccco1)Nc1ccc(Oc2ccccc2)cc1 | > 13300 nM (inactive)
CCN1/C(=C\C=C\C2=[N+](CC)c3ccccc3C2(C)C)C(C)(C)c2ccccc21 | 239 nM
COc1cc([C@@H]2c3cc4c(cc3[C@@H](NC3CCN(Cc5ccccc5)CC3)[C@H]3COC(=O)[C@H]23)OCO4)cc(OC)c1O | 133 nM
CCN1C/C(=C/c2ccc(OC)c(O)c2)C(=O)/C(=C/c2ccc(OC)c(O)c2)C1 | 472 nM
COc1cccc(CSc2nc3ccccc3cc2C=O)c1 | 111 nM
C[C@@H]1O[C@@H](O[C@H]2C[C@@H](O)[C@]3(CO)[C@H]4[C@H](O)C[C@]5(C)[C@@H](C6COC(=O)C6)CC[C@]5(O)[C@@H]4CC[C@]3(O)C2)[C@H](O)[C@H](O)[C@H]1O (stereo partly specified) | 802 nM

Structure (SMILES) | EC50
O=C(NCCOc1cccnc1)c1ccc(OC2CCN(Cc3ccccn3)CC2)cc1 | < 91.9 nM
C[C@H]1O[C@@H](O[C@H]2[C@@H](O)C[C@H](O[C@H]3[C@@H](O)C[C@H](O[C@H]4CC[C@@]5(C)[C@H](CC[C@@H]6[C@@H]5C[C@@H](O)[C@]5(C)[C@@H](C7=CC(=O)OC7)CC[C@]65O)C4)O[C@@H]3C)O[C@@H]2C)C[C@H](O)[C@@H]1O | < 104 nM
CC(C)(C)c1ccc(C(=O)Nc2ccc(C(=O)NCc3cccnc3)cc2)cc1 | < 118 nM
CCOC(=O)c1ccc(NC(=O)Nc2ccon2)cc1 | < 104 nM
N#CC1=C(N)Oc2cc(N)ccc2C1c1cccc(Br)c1 (stereo unspecified) | 318 nM
O=C(NCCCn1ccnc1)c1ccc(N2CCCCCC2)c([N+](=O)[O-])c1 | 6680 nM
O=[N+]([O-])c1c(Nc2ccccn2)cc(Cl)c2nonc12 | 2110 nM
O=C(c1cccs1)c1no[n+]([O-])c1C(=O)c1cccs1 | 2990 nM
COc1ccc(-c2coc3cc4oc(=O)c5ccccc5c4cc23)cc1F | < 104 nM
ClC1=C(Cl)C(Cl)=C(Cl)C1=C/C=C/c1ccccc1 | 1040 nM
COc1ccc(C)cc1Nc1c2c(nc3ccccc13)CCC2 | 292 nM
CCOc1ccc(C(=O)c2cc([N+](=O)[O-])ccc2N2CCOCC2)cc1 | < 104 nM
CCN1/C(=C/c2ccc3ccccc3[n+]2CC)C=Cc2ccccc21 | 726 nM
COC(=O)C[C@](O)(CCCC(C)(C)O)C(=O)O[C@@H]1C(OC)=C[C@]23CCCN2CCc2cc4c(cc2[C@H]13)OCO4 | < 34.7 nM
CCOC(=O)/C(=C\c1cccnc1)C(=O)c1cc(C(C)=O)c(Nc2ccccc2)s1 | 575 nM
COc1cc2c(c(OC)c1OC)-c1ccc(N(C)CC(OC)OC)c(=O)cc1[C@@H](NC(C)=O)CC2 | 180 nM
Cc1occc1C(=O)N/N=C/c1ccc(-c2ccccc2)cc1 | > 13300 nM (inactive)
CC1(C)N=C(N)N=C(N)N1c1ccccc1 | > 13300 nM (inactive)
Cc1ccc(N(C(=O)CCl)C(C(=O)NC2CCCCC2)c2cccnc2)cc1C (stereo unspecified) | < 89.2 nM
Cc1ccc(C(C)C)c(OCc2ccc(C(=O)N/N=C/c3cccc(O)c3O)cc2)c1 | 496 nM
N#CC(C#N)=NNc1ccc(-n2ccc(C(F)(F)F)n2)cc1 | 2650 nM
CCn1cc(C(=O)NCc2ccco2)c(=O)c2cc(S(=O)(=O)N3CC(C)CC(C)C3)ccc21 (stereo unspecified) | > 13300 nM (inactive)
Cc1ccc(C2CC(c3cccs3)=NN2C(=O)CCl)cc1 (stereo unspecified) | 727 nM
COc1ccc2[nH]c3c(NCCC4=CCCCC4)ncnc3c2c1 | > 13300 nM (inactive)
COc1cc(C2CC(c3cccs3)=NN2C(=O)CCl)ccc1OC(F)F (stereo unspecified) | 271 nM
CCc1ccc(/C=C2/SC(=S)N(CCC(=O)NCCCN3CCOCC3)C2=O)cc1 | 2420 nM

Structure (SMILES) | EC50
COc1ccc(S(=O)(=O)N2CCOCC2)cc1NC(=O)CCNC(=O)c1ccc(Br)cc1 | 440 nM
S=c1nc[nH]c2nc[nH]c12 | > 13300 nM (inactive)
CC1=CC(=O)C=C(C)C1=NOc1ccccc1[N+](=O)[O-] | 670 nM
COc1ccc(C)cc1NS(=O)(=O)c1ccc(-c2cnc(C3CC3)o2)cc1 | < 104 nM
COc1ccc(S(=O)(=O)N2c3ccc(F)cc3CCC2C)cc1 (stereo unspecified) | < 104 nM
COC(=O)C1=C(C)N(Cc2ccccc2)C(=NCc2cccc(C(F)(F)F)c2)N[C@H]1c1cccc(F)c1 | > 13300 nM (inactive)
Cc1onc(C(=O)N2CCN(C(c3ccccc3)c3ccccc3)CC2)c1[N+](=O)[O-] | 762 nM
CC(C)[C@]12O[C@H]1[C@@H]1O[C@]13[C@]1(O[C@H]1C[C@H]1C4=C(CC[C@@]13C)C(=O)OC4)[C@@H]2O | < 104 nM
O=C(N/N=C/c1cccs1)c1cc(-c2ccncc2)nc2ccccc12 | 113 nM
C(=N\Nc1nc2ccccc2[nH]1)/c1ccc2ncccc2c1 | > 13300 nM (inactive)
Cc1ccc(/C=C2\SC(=S)N(CCCC(=O)N3CCOCC3)C2=O)cc1 | 3580 nM
C[C@]12CCC3C(CCC4=CC(O)CC[C@@]43/C=N/O)C1(O)CCC2C1=CC(=O)OC1 (stereo partly specified) | 294 nM
COc1ccccc1/C=C1\SC(=S)N(CCC(=O)NCCCn2ccnc2)C1=O | > 13300 nM (inactive)
CC(C)C(=O)Nc1ccc(C(=O)NCc2cccnc2)cc1 | 742 nM
COc1ccc(N(C(=O)CCl)C(C(=O)NCCc2ccccc2)c2cccs2)cc1 (stereo unspecified) | 428 nM
O=C(Cc1ccc(Cl)cc1)c1c[nH]c(C(=O)NCc2cccnc2)c1 | > 13300 nM (inactive)
N=c1c2c(-c3ccccc3)c(-c3ccccc3)n(Cc3ccco3)c2ncn1CCCn1ccnc1 | 1270 nM
NS(=O)(=O)c1ccc(NC(=O)c2cc(-c3cccs3)nc3ccccc23)cc1 | > 13300 nM (inactive)
c1ccc(-c2noc(-c3ccc4c(c3)OCO4)n2)nc1 | > 13300 nM (inactive)
COc1ccc(-c2cc3nc(C)cc(N)n3n2)cc1 | > 13300 nM (inactive)
CCc1c(C)c(C#N)c2nc3ccccc3n2c1Cl | 553 nM
Cc1ccc(NC(=O)[C@H](Cc2c[nH]c3ccccc23)NC(=O)[C@@H]2Cc3ccccc3CN2)c(C)c1 | > 13300 nM (inactive)
O=C(N/N=C/c1ccc([N+](=O)[O-])o1)c1cc2ccccc2o1 | 7500 nM
Cc1cccnc1Nc1nc(-c2ccccn2)cs1 | < 142 nM
CCCCCOc1ccc(Br)cc1/C(C)=N/NC1=NCCN1 | 697 nM
Cc1cc(C)c2nc(C)cc(N/N=C/c3ccc(O)cc3)c2c1 | 575 nM

Structure (SMILES) | EC50
O=C1c2cccc3cc([N+](=O)[O-])cc(c23)C(=O)N1CCN1CCCC1 | 409 nM
C=C1C(=O)O[C@@H]2C[C@@H](C)[C@H]3C=CC(=O)[C@]3(O)C[C@@H]12 | 4550 nM
Cc1ccccc1Nc1nc(N)nc(CCl)n1 | 2290 nM
CCCCN=C[C@]12CCC(O)CC1(O)CCC1[C@@H]2CC[C@]2(C)[C@H](C3C=CC(=O)O3)CCC12O (stereo partly specified) | 315 nM
COc1ccc2c(c1)sc(N)[n+]2Cc1cc(C)cc2cccnc12 | 266 nM
O=c1c2ccccc2nc(/C=C/c2ccc([N+](=O)[O-])o2)n1-c1ccc(O)cc1 | 3660 nM
CCN(CC)c1ccc(/C=N/NC(=O)c2ccco2)c(O)c1 | 804 nM
O=[N+]([O-])c1ccccc1N/N=C\c1ccccc1Cl | > 13300 nM (inactive)
C#CCOc1ccc(C2C3=C(COC3=O)Nc3cc4c(cc32)OCO4)cc1OC (stereo unspecified) | < 104 nM
CC(=O)c1ccc(NC(=O)N2CCc3ccccc3C2)cc1 | > 13300 nM (inactive)
CCN1CCc2c(sc(NC(=O)c3cc4ccccc4cc3OC)c2C(N)=O)C1 | 588 nM
CNC(=S)N/N=C/c1ccc(-c2ccc(C(=O)O)cc2)o1 | > 13300 nM (inactive)
CC1CN(S(=O)(=O)c2ccc(C(=O)NCCCn3ccnc3)cc2)CC(C)O1 (stereo unspecified) | 436 nM
CCOC(=O)C1CCN(S(=O)(=O)c2c(Cl)ccc3nonc23)CC1 | 407 nM
Cc1cccc(N2CCN(C(=S)Nc3ccc4nc(N5CCN(C)CC5)cc(C)c4c3)CC2)c1C | 864 nM
CCOC(=O)c1c(CSC(=N)N)n(-c2ccc(C)cc2)c2cc(Br)c(OC(C)=O)cc12 | > 13300 nM (inactive)
COc1cc(SC)ccc1C(=O)Nc1nc2ccccc2[nH]1 | > 13300 nM (inactive)
CCN(CC)c1ccc2c(cc1=O)[C@@H](NC)CCc1cc(OC)c(OC)c(OC)c1-2 | 380 nM
COc1cccc2c1C(=O)c1c(O)c3c(c(O)c1C2=O)C[C@@](O)(C(=O)CO)C[C@@H]3O[C@H]1C[C@H](N)[C@@H](O)[C@H](C)O1 | < 104 nM
Cc1cccc(NS(=O)(=O)c2ccc(-c3cnc(C4CC4)o3)cc2)c1C | < 104 nM
CC1CCCCC1N(C)C1CCN(C(=O)CNC(=O)/C=C/c2cccc(Cl)c2)CC1 (stereo unspecified) | 1290 nM
Cc1cccc(Nc2nc(N)nc(CCl)n2)c1C | 468 nM
CCCCOc1ccc(Br)cc1/C(C)=N/NC1=NCCN1 | 585 nM
